The IC50 is the point on the concentration scale where inhibition reaches its midpoint. Read a low IC50 as higher potency.

Holding throughout (type): biochemical
For assay [1], the target named is PI3K-α (Homo sapiens, UniProt P42336). Put plainly: PI3K-alpha fluorescence polarization assay. To be noted: 20 μM PIP2, 25 μM ATP. How it is done: (§1) The reaction buffer was 20 mM HEPES pH7.5, 2 mM MgCl2, 0.05% CHAPS, and 0.01% βME (added fresh). The substrate solution was 40 μM PIP2 (diC8, Echelon, Salt Lake City Utah cat #P-4508, 1 mM in water) and 50 μM ATP in the reaction buffer. Nunc 384-well black polypropylene fluorescent plates were used for PI3K assays. The assay is run by putting 9.5 μl of freshly diluted enzyme in the reaction buffer per well, adding 0.5 μl of diluted drug or DMSO, and mixing. Then 10 μl of the substrate solution is added to each well to start the reaction. A final concentration of 20 μM PIP2 and 25 μM ATP in the reaction was used. Reactions were allowed to proceed for 30-60 minutes at room temperature. After 30-60 minutes, 20 μl of a solution of 10 nM TAMRA detector (Red detector probe-Echelon) and 2.5 uM of GST-murineGRP (1.5 mg/ml in 17% glycerol) was added per well to stop the reaction. The resulting solution was mixed well and allowed to stand for 90-110 minutes before reading plate. Assay Plates were read on Perkin-Elmer Envision plate readers with appropriate filters for Tamra [BODIPY-TMRI(1,3,4,5)P4]. Data obtained were used to calculate enzymatic activity and enzyme inhibition by inhibitor compounds. It is important to keep Red probe solutions dark. This procedure is adapted from Echelon Biosciences Inc procedure for their PI3-Kinase fluorescence polarization activity Assay kit Product number K-1100.
Sequence of PI3K-α (P42336 whole entry, species assumed): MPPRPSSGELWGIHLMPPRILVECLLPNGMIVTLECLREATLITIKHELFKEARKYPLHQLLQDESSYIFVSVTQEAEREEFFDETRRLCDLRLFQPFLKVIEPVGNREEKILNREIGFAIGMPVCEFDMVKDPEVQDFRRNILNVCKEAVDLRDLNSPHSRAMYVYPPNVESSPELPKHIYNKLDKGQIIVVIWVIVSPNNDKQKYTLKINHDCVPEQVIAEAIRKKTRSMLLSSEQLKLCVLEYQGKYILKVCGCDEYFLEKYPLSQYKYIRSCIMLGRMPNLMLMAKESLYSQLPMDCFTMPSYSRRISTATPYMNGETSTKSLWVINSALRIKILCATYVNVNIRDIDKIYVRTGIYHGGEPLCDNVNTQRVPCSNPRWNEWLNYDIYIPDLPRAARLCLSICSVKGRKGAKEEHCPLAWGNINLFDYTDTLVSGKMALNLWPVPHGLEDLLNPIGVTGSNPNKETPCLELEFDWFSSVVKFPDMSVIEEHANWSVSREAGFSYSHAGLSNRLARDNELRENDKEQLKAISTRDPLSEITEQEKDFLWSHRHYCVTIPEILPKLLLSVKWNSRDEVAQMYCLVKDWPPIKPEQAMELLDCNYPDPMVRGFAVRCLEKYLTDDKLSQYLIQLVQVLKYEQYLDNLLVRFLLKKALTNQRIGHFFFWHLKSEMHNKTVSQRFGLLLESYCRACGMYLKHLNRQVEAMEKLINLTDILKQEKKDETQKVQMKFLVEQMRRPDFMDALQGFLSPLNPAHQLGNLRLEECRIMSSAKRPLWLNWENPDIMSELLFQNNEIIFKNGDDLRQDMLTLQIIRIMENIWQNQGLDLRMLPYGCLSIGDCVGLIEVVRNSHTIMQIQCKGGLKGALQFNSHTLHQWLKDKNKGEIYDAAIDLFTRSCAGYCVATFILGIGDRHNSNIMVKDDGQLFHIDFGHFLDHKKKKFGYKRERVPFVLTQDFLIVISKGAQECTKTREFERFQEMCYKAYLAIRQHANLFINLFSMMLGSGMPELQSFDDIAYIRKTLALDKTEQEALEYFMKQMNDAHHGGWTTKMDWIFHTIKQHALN
Sequence of PI3K-α (P27986 whole entry partner, species assumed): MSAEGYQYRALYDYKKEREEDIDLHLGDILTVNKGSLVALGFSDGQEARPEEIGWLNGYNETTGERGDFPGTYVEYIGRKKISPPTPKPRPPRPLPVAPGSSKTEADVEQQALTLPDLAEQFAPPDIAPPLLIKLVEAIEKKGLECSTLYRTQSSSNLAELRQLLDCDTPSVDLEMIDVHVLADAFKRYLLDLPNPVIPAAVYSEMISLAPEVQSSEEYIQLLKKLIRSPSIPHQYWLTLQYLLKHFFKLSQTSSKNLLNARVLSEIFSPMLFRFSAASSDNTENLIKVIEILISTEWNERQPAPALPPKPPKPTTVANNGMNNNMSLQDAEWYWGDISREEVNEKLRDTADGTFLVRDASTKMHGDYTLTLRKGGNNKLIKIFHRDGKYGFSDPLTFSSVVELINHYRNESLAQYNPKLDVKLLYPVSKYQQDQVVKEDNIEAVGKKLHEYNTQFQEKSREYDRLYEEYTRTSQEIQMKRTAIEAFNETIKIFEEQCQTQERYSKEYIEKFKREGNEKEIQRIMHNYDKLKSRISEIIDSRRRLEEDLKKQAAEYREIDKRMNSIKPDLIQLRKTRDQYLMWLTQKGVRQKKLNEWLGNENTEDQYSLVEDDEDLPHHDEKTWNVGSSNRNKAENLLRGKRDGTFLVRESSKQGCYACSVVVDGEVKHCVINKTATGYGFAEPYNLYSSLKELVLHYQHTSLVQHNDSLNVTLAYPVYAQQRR

For assay [2], the target named is PI3K-γ (Homo sapiens, UniProt P48736). The assay is described as follows: PI3K-gamma fluorescence polarization assay. To be noted: 20 μM PIP2, 25 μM ATP. How it is done:
as §1
Background: Fluorescence polarisation rises when a labelled molecule tumbles more slowly, as on binding a larger partner.

The target in assay [3] is mTOR (Homo sapiens, UniProt P42345). The assay is described as follows: mTOR enzyme assay (DELFIA, His6-S6K phosphorylation). Set-up: FLAG. To be noted: 100 μM ATP, 1.25 μM His6-S6K.

Sequence of PI3K-γ (P48736 whole entry, species assumed): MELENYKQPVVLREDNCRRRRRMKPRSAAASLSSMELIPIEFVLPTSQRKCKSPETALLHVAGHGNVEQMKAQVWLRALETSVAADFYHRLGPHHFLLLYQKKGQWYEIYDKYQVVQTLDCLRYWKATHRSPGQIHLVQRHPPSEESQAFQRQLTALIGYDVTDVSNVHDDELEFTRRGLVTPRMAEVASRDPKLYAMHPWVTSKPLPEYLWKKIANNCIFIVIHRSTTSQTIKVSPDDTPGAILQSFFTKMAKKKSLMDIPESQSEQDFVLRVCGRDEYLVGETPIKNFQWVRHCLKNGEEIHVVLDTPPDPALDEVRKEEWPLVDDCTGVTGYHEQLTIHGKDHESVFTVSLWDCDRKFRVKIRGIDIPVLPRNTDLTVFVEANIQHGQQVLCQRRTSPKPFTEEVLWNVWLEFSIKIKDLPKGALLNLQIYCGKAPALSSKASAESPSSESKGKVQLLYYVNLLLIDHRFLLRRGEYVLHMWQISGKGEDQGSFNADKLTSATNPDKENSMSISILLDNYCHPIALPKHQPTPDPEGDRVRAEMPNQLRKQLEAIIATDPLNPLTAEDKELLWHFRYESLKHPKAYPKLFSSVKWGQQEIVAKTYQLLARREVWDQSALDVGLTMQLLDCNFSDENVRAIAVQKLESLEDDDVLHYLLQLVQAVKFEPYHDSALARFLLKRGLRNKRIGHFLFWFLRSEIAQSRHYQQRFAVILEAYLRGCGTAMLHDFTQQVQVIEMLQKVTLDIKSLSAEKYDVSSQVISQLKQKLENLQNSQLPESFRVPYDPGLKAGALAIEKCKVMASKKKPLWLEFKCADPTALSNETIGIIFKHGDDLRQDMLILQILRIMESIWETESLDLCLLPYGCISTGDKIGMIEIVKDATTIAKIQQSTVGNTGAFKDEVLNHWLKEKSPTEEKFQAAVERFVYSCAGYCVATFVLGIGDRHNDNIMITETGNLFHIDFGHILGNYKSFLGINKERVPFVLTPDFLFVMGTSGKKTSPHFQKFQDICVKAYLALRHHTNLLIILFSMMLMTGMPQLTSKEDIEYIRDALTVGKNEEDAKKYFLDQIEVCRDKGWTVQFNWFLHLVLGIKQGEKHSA

Regarding `CN(C)C1CCN(C(=O)c2ccc(NC(=O)Nc3ccc(Nc4nc(Nc5ccc(C(N)=O)cc5)c5cnn(C)c5n4)cc3)cc2)C1` (centres unmarked) [Example 83, 4-({6-[(4-{[(4-{[3-(Dimethylamino)pyrrolidin-1-yl]carbonyl}phenyl)carbamoyl]amino}phenyl)amino]-1-methyl-1H-pyrazolo[3,4-d]pyrimidin-4-yl}amino)benzamide], the IC50 in assay [1] is 0.0003 µM; in assay [2], 0.007 µM; in assay [3] it was 0.005 µM.

For `CC(=O)Nc1ccc(Oc2nc(-c3ccc4[nH]ccc4c3)nc3c2cnn3C)cc1` [Example 55, N-(4-{[6-(1H-indol-5-yl)-1-methyl-1H-pyrazolo[3,4-d]pyrimidin-4-yl]oxy}phenyl)acetamide], the IC50 was found to be 0.387 µM in assay [1], 0.6 µM in assay [2] and 0.57 µM in assay [3].

Turning to `Cn1ncc2c(Nc3ccc4c(c3)CNC4=O)nc(Nc3ccc(NC(=O)Nc4cccnc4)cc3)nc21` [Example 94, 1-[4-({1-Methyl-4-[(1-oxo-2,3-dihydro-1H-isoindol-5-yl)amino]-1H-pyrazolo[3,4-d]pyrimidin-6-yl}amino)phenyl]-3-pyridin-3-ylurea], the IC50 in assay [1] stood at 0.0016 µM; in assay [2] it was 0.011 µM; in assay [3], 0.02 µM.

As for `Cn1ncc2c(Oc3ccc(C(N)=O)cc3)nc(-c3ccccc3)nc21` [Example 75, 4-[(1-methyl-6-phenyl-1H-pyrazolo[3,4-d]pyrimidin-4-yl)oxy]benzamide], the IC50 in assay [1] came out at 1.02 µM; in assay [2], 1.72 µM; in assay [3], 9.2 µM.

On to `COc1ccc(Oc2nc(-c3ccccc3)nc3c2cnn3C)cc1OC` [Example 73, 4-(3,4-dimethoxyphenoxy)-1-methyl-6-phenyl-1H-pyrazolo[3,4-d]pyrimidine], for which the IC50 is 1.76 µM in assay [1], above 9.6 µM in assay [2] and 8.2 µM in assay [3].

For the molecule `CC(C)c1ccc(-c2nc(Oc3ccc4[nH]ccc4c3)c3cnn(C)c3n2)cc1` [Example 58, 4-(1H-indol-5-yloxy)-6-(4-isopropylphenyl)-1-methyl-1H-pyrazolo[3,4-d]pyrimidine], the IC50 in assay [1] was 3.8 µM; in assay [2], 10.6 µM; in assay [3], above 20 µM.

On to `Cn1ncc2c(Oc3ccc4[nH]ccc4c3)nc(-c3ccc(-c4ccccc4)cc3)nc21` [Example 56, 6-biphenyl-4-yl-4-(1H-indol-5-yloxy)-1-methyl-1H-pyrazolo[3,4-d]pyrimidine], for which the IC50 in assay [1] was 11.5 µM; in assay [2], above 10 µM; in assay [3], 16 µM.

As to `Cn1ncc2c(Nc3ccc(C(N)=O)cc3)nc(-c3ccoc3)nc21` [Example 65, 4-{[6-(3-furyl)-1-methyl-1H-pyrazolo[3,4-d]pyrimidin-4-yl]amino}benzamide], the IC50 is 0.314 µM in assay [1], 1.71 µM in assay [2] and 1.3 µM in assay [3].

Take `CN(CCO)C(=O)c1ccc(NC(=O)Nc2ccc(Nc3nc(Nc4ccc(C(N)=O)cc4)c4cnn(C)c4n3)cc2)cc1` [Example 85, 4-({[4-({4-[(4-Carbamoylphenyl)amino]-1-methyl-1H-pyrazolo[3,4-d]pyrimidin-6-yl}amino)phenyl]carbamoyl}amino)-N-(2-hydroxyethyl)-N-methylbenzamide]: the IC50 in assay [1] was 0.0004 µM; in assay [2] it was 0.011 µM; in assay [3], 0.009 µM.

Turning to `Cn1ncc2c(Oc3ccc4[nH]ccc4c3)nc(-c3cccc(OCc4ccccc4Cl)c3)nc21` [Example 69, 6-{3-[(2-chlorobenzyl)oxy]phenyl}-4-(1H-indol-5-yloxy)-1-methyl-1H-pyrazolo[3,4-d]pyrimidine], the IC50 in assay [1] was 10.8 µM; in assay [2], above 10 µM; in assay [3], above 20 µM.

Turning to `c1ccc(CN2CCC(n3ncc4c(Nc5ccc6[nH]ccc6c5)nc(-c5ccccc5)nc43)CC2)cc1` [Example 4, 1-(1-benzylpiperidin-4-yl)-N-1H-indol-5-yl-6-phenyl-1H-pyrazolo[3,4-d]pyrimidin-4-amine], the IC50 was above 10 µM in assay [1] and 10.1 µM in assay [2].

`NC(=O)c1ccc(Nc2nc(-c3cccc(C(F)(F)F)c3)nc3c2cnn3C2CCN(Cc3ccccc3)CC2)cc1` [Example 25, 4-({1-(1-benzylpiperidin-4-yl)-6-[3-(trifluoromethyl)phenyl]-1H-pyrazolo[3,4-d]pyrimidin-4-yl}amino)benzamide]: the IC50 in assay [1] came out at 3.43 µM; in assay [2] it was 2.25 µM.

On to `COc1ccc(Nc2nc(-c3ccccc3)nc3c2cnn3C2CCNCC2)cc1OC` [Example 13, N-(3,4-dimethoxyphenyl)-6-phenyl-1-piperidin-4-yl-1H-pyrazolo[3,4-d]pyrimidin-4-amine], for which the IC50 in assay [1] is above 10 µM; in assay [2], 7.7 µM.

For `COc1ccc(Nc2nc(-c3ccccc3)nc3c2cnn3C2CCN(Cc3ccccc3)CC2)cc1OC` [Example 2, 1-(1-benzylpiperidin-4-yl)-N-(3,4-dimethoxyphenyl)-6-phenyl-1H-pyrazolo[3,4-d]pyrimidin-4-amine], the IC50 is above 10 µM in assay [1] and 5.1 µM in assay [2].

Consider `NC(=O)c1ccc(Nc2nc(-c3ccccc3O)nc3c2cnn3C2CCN(Cc3ccccc3)CC2)cc1` [Example 26, 4-{[1-(1-benzylpiperidin-4-yl)-6-(2-hydroxyphenyl)-1H-pyrazolo[3,4-d]pyrimidin-4-yl]amino}benzamide], for which the IC50 is 2.25 µM in assay [1] and 4 µM in assay [2].

Regarding `COc1ccc(Nc2nc(-c3ccc(O)cc3)nc3c2cnn3C2CCN(Cc3ccccc3)CC2)cc1OC` [Example 30, 4-{1-(1-benzylpiperidin-4-yl)-4-[(3,4-dimethoxyphenyl)amino]-1H-pyrazolo[3,4-d]pyrimidin-6-yl}phenol], the 50% inhibitory concentration (IC50) in assay [1] is above 5.94 µM; in assay [2], 3.32 µM.

Turning to `NC(=O)c1ccc(Nc2nc(-c3cccc([N+](=O)[O-])c3)nc3c2cnn3C2CCN(Cc3ccccc3)CC2)cc1` [Example 21, 4-{[1-(1-benzylpiperidin-4-yl)-6-(3-nitrophenyl)-1H-pyrazolo[3,4-d]pyrimidin-4-yl]amino}benzamide], the IC50 in assay [1] was 2.81 µM; in assay [2], 2.46 µM.

Take `COc1ccc(Oc2nc(-c3ccc(N(C)C)cc3)nc3c2cnn3C)cc1OC` [Example 47, 4-[4-(3,4-dimethoxyphenoxy)-1-methyl-1H-pyrazolo[3,4-d]pyrimidin-6-yl]-N,N-dimethylaniline]: the concentration for half-maximal inhibition (IC50) was 6.04 µM in assay [1] and above 10 µM in assay [2].

For the molecule `COc1ccc(Nc2nc(-c3cccc(O)c3)nc3c2cnn3C2CCN(Cc3ccccc3)CC2)cc1OC` [Example 7, 3-{1-(1-benzylpiperidin-4-yl)-4-[(3,4-dimethoxyphenyl)amino]-1H-pyrazolo[3,4-d]pyrimidin-6-yl}phenol], the IC50 is above 10 µM in assay [1] and 5.92 µM in assay [2].

With `CN(C)c1ccc(-c2nc(Oc3ccc4[nH]ccc4c3)c3cnn(C)c3n2)cc1` [Example 40, 4-[4-(1H-indol-5-yloxy)-1-methyl-1H-pyrazolo[3,4-d]pyrimidin-6-yl]-N,N-dimethylaniline], the figures for the IC50 in assay [1] and in assay [2] were 3.78 µM and above 10 µM, respectively.

In the case of `NC(=O)c1cccc(Nc2nc(-c3ccccc3)nc3c2cnn3C2CCN(Cc3ccccc3)CC2)c1` [Example 3, 3-{[1-(1-benzylpiperidin-4-yl)-6-phenyl-1H-pyrazolo[3,4-d]pyrimidin-4-yl]amino}benzamide], the IC50 in assay [1] came out at 7.28 µM; in assay [2] it was 5.02 µM.

For `NC(=O)c1ccc(Nc2nc(-c3ccccc3)nc3c2cnn3C2CCN(Cc3ccccc3)CC2)cc1` [Example 1, 4-{[1-(1-benzylpiperidin-4-yl)-6-phenyl-1H-pyrazolo[3,4-d]pyrimidin-4-yl]amino}benzamide], the IC50 in assay [1] was 6.11 µM; in assay [2], 7 µM.

With `CC(=O)Nc1cccc(Nc2nc(-c3cccc(O)c3)nc3c2cnn3C2CCN(Cc3ccccc3)CC2)c1` [Example 10, N-(3-{[1-(1-benzylpiperidin-4-yl)-6-(3-hydroxyphenyl)-1H-pyrazolo[3,4-d]pyrimidin-4-yl]amino}phenyl)acetamide], the IC50 in assay [1] worked out at 6.18 µM; in assay [2] it was 4.66 µM.

As for `Oc1cccc(-c2nc(Nc3ccc4[nH]ccc4c3)c3cnn(C4CCN(Cc5ccccc5)CC4)c3n2)c1` [Example 9, 3-[1-(1-benzylpiperidin-4-yl)-4-(1H-indol-5-ylamino)-1H-pyrazolo[3,4-d]pyrimidin-6-yl]phenol], the IC50 in assay [1] is above 10 µM; in assay [2] it was 13.1 µM.

With `NC(=O)c1cccc(Nc2nc(-c3cccc(O)c3)nc3c2cnn3C2CCN(Cc3ccccc3)CC2)c1` [Example 8, 3-{[1-(1-benzylpiperidin-4-yl)-6-(3-hydroxyphenyl)-1H-pyrazolo[3,4-d]pyrimidin-4-yl]amino}benzamide], the IC50 was 6.03 µM in assay [1] and 7 µM in assay [2].

As for `NC(=O)c1cccc(Nc2nc(-c3cccc(O)c3)nc3c2cnn3C2CCNCC2)c1` [Example 18, 3-{[6-(3-hydroxyphenyl)-1-piperidin-4-yl-1H-pyrazolo[3,4-d]pyrimidin-4-yl]amino}benzamide], the IC50 in assay [1] is above 10 µM; in assay [2], 9.72 µM.
